Results published in patent US20180042941A1, “CABAZITAXEL AND ITS USE FOR TREATING METASTATIC PROSTATE CANCERS” (AVENTIS PHARMA S.A., priority 2013, published 2018).

Key:
[1] = tested on: patients treated with cabazitaxel; conditions: cited from earlier work
tubulin = conditions: resulting in inhibition of microtubule depolymerization and tumor cell proliferation; cited from earlier work
[2] = tested on: tumor models poorly or not sensitive to chemotherapy, including taxanes; conditions: cited from earlier work
[3] = tested on: patient with metastatic prostate cancer; test: case reports of patients treated with cabazitaxel in combination with prednisone or prednisolone (adverse events); conditions: for WBC level: units not provided
Description: This example relates to the treatment of a patient with metastatic prostate cancer, according the following dosage: cabazitaxel (25 mg/m^2)+prednisone 10 mg daily+budesonide (9 mg daily).
This example relates to a patient (with prostate carcinoma) who initiated treatment with study drug cabazitaxel (20 mg/m^2) and prednisone (10 mg) (cycle 1).
This example relates to the treatment of a patient with a metastatic carcinoma of the prostate, according the following dosage: cabazitaxel 20 mg/m^2 intravenously (day 1) every 3 weeks and prednisone 10 mg PO daily, from day 1 continuously.
The treatment was as follows: cabazitaxel 20 mg/m^2 on day 1 every 3 weeks in combination with prednisone/prednisolone.
The following treatment was followed: cabazitaxel 25 mg/m^2 on day 1 every 3 weeks in combination with prednisone/prednisolone.
The dosage regimen was as follows: cabazitaxel 25 mg/m^2 intravenous infusion over 1 hour on day 1 of each 3 week cycle as well as oral prednisone/prednisolone 10 mg daily.
The following treatment was applied: cabazitaxel 20 mg/m^2 intravenously every 3 weeks, in combination with oral prednisone or prednisolone 10 mg daily.
This example relates to a patient with metastatic prostate cancer. The following treatment was followed: cabazitaxel 25 mg/m^2 intravenously (day 1) every 3 weeks and prednisone 10 mg PO daily, from day 1 continuously.
This patient was treated with cabazitaxel 20 mg/m^2 on day 1 every 3 weeks in combination with prednisone/prednisolone.
The following therapy dosage was used: cabazitaxel 25 mg/m^2 intravenously (day 1) every 3 weeks, plus prednisone 10 mg orally daily.
The therapy was as follows: the patient received cabazitaxel 25 mg/m^2 intravenous infusion over 1 hour on day 1 of each 3 week cycle as well as oral prednisone/prednisolone 10 mg daily.
The following dosage regimen was used: cabazitaxel 25 mg/m^2 on day 1 every 3 weeks in combination with prednisone/prednisolone.
This example relates to a patient with metastatic castration resistant prostate cancer not pretreated with chemotherapy. The following therapy was applied: cabazitaxel 25 mg/m^2 intravenously (day 1) every 3 weeks. Prednisone 10 mg PO daily, from day 1 continuously.
This example relates to a patient with metastatic castration resistant prostate cancer not pretreated with chemotherapy, having the following therapy: cabazitaxel 25 mg/m^2 intravenously (day 1) every 3 weeks and prednisone 10 mg PO daily, from day 1 continuously.
This example relates to a patient with metastatic castration resistant prostate cancer not pre-treated with chemotherapy. The following therapy was applied: cabazitaxel 20 mg/m^2 intravenously (day 1) every 3 weeks, prednisone 10 mg PO daily, from day 1 continuously.
The following dosage regimen was applied: cabazitaxel 25 mg/m^2 intravenously every 3 weeks, in combination with oral prednisone or prednisolone 10 mg daily.
The therapy involved the administration of cabazitaxel on day 1 every 3 weeks in combination with prednisone.
The following therapy was applied: cabazitaxel 25 mg/m^2 on day 1 every 3 weeks in combination with prednisolone.
The following dosage regimen was applied: cabazitaxel 20 mg/m^2 intravenously (day 1) every 3 weeks and prednisone 10 mg PO daily, from day 1 continuously.
The following dosage regimen was applied: cabazitaxel 20 mg/m^2 on day 1 every 3 weeks in combination with prednisolone.
The following dosage regimen was applied: cabazitaxel 25 mg/m^2 on day 1 every 3 weeks in combination with prednisone.
The applied dosage regimen was as follows: cabazitaxel 25 mg/m^2 intravenous infusion over 1 hour on day 1 of each 3 week cycle as well as oral prednisone 10 mg daily.

[4] = Ex 3, cabazitaxel 25 mg/m^2 + prednisone + budesonide
[5] = Ex 5, cabazitaxel 20 mg/m^2 + prednisone, cycle 4, day 5
[6] = Ex 5, cabazitaxel 20 mg/m^2 + prednisone, during hospitalization
[7] = Ex 7, cabazitaxel 25 mg/m^2 + prednisone
[8] = Ex 7, cabazitaxel 25 mg/m^2 + prednisone, day 9 of first cycle
[9] = Ex 12, cabazitaxel 25 mg/m^2 + prednisone
[10] = Ex 16, cabazitaxel 25 mg/m^2 + prednisolone
[11] = Ex 16, cabazitaxel 25 mg/m^2 + prednisolone, five days after hospitalization
[12] = Ex 20, cabazitaxel 25 mg/m^2 + prednisolone, after intensive care
[13] = Ex 20, cabazitaxel 25 mg/m^2 + prednisolone, on admission

CO[C@H]1C(=O)[C@]2(C)[C@@H](OC)C[C@H]3OC[C@@]3(OC(C)=O)[C@H]2[C@H](OC(=O)c2ccccc2)[C@]2(O)C[C@H](OC(=O)[C@H](O)[C@@H](NC(=O)OC(C)(C)C)c3ccccc3)C(C)=C1C2(C)C [cabazitaxel, 4α-acetoxy-2α-benzoyloxy-5β,20-epoxy-1β-hydroxy-7β,10β-dimethoxy-9-oxo-11-taxen-13α-yl (2R,3S)-3-tert-butoxycarbonyl-amino-2-hydroxy-3-phenylpropionate]
gastrointestinal adverse reactions reported [1]: Gastrointestinal (GI) hemorrhage and perforation, ileus, colitis, including fatal outcome | action on tubulin (tubulin): binds to and stabilizes tubulin | activity in tumor models [2]: active | control fibrogastroscopy finding ([3]; Ex 1, cabazitaxel 20 mg/m^2 + prednisone, ten days after antisecretory and antiulcer therapy): atrophic gastritis | outcome of event ([3]; Ex 1, cabazitaxel 20 mg/m^2 + prednisone, ten days after onset of epigastric pain): fully recovered | adverse event complained of ([3]; Ex 1, patient, cabazitaxel 20 mg/m^2 every 3 weeks + prednisone 10 mg daily, 15th day of cycle 1): epigastric pain | fibrogastroduodenoscopy finding ([3]; Ex 1, patient, cabazitaxel 20 mg/m^2 every 3 weeks + prednisone 10 mg daily, two days after 15th day of cycle 1): acute ulcer in the small curvature | colonic spasm (grade) ([3]; Ex 2, cabazitaxel 20 mg/m^2 + prednisone, during 7th cycle): grade 2 to grade 1 | outcome of colitis ([3]; Ex 2, cabazitaxel 20 mg/m^2 + prednisone, three days later): recovered | colitis (grade) ([3]; Ex 2, patient, cabazitaxel 20 mg/m^2 every 3 weeks + prednisone 10 mg daily, 75 days after first, 6 days after most recent dose (cycle 4)): 3 | colitis (grade) [3, 4]: 2 | outcome of events [3, 4]: no more episodes of SVT or diarrhea | white blood cell (WBC) ([3]; Ex 3, cabazitaxel 25 mg/m^2 + prednisone + budesonide, 45 days after first dose, normal 4-10): 6.9 | haemoglobin ([3]; Ex 3, cabazitaxel 25 mg/m^2 + prednisone + budesonide, 45 days after first dose, normal 8.5-11): 7.3 | creatinine ([3]; Ex 3, cabazitaxel 25 mg/m^2 + prednisone + budesonide, 45 days after first dose, normal 60-110): 94 | supraventricular tachycardia with angina (grade) ([3]; Ex 3, cabazitaxel 25 mg/m^2 + prednisone + budesonide, 45 days after first, 3 days after most recent dose): 3 | sigmoidoscopy finding ([3]; Ex 3, cabazitaxel 25 mg/m^2 + prednisone + budesonide, six days later): severe colitis | diarrhea ([3]; Ex 3, patient, cabazitaxel 25 mg/m^2 + prednisone 10 mg daily + budesonide 9 mg daily, 43 days after first, 1 day after most recent dose): slight diarrhea | neutropenia ([3]; Ex 4, cabazitaxel 20 mg/m^2 + prednisone, during enterocolitis): no neutropenia | outcome of event ([3]; Ex 4, cabazitaxel 20 mg/m^2 + prednisone, three days later): recovered | enterocolitis (grade) ([3]; Ex 4, patient, cabazitaxel 20 mg/m^2 + prednisone 10 mg, 145 days after first, 7 days after most recent dose (cycle 7)): 3 | gastritis (grade) [3, 5]: 2 | nausea (grade) [3, 5]: 2 | WBC decrease (grade) [3, 6]: 3 | WBC level [3, 6]: 2720 | outcome of events ([3]; Ex 5, cabazitaxel 20 mg/m^2 + prednisone, leukopenia three days after corrective treatment, hypotension, nausea and gastritis one day later): recovered | WBC level ([3]; Ex 5, cabazitaxel 20 mg/m^2 + prednisone, on the day after): 1000 | hypotension (grade) ([3]; Ex 5, patient, cabazitaxel 20 mg/m^2 every 3 weeks + prednisone 10 mg daily, cycle 4, day 5): 2 | pneumonia (grade) ([3]; Ex 6, cabazitaxel 20 mg/m^2 + prednisone, day 7 of cycle 1): 4 | outcome ([3]; Ex 6, cabazitaxel 20 mg/m^2 + prednisone, one day later, due to paralytic ileus and pneumonia): died | paralytic ileus (grade) ([3]; Ex 6, patient, cabazitaxel 20 mg/m^2 every 3 weeks + prednisone, day 4 of cycle 1): 4 | time to recovery from colitis [3, 7]: 9 days | time to recovery from neutropenia [3, 7]: 5 days | diarrhea with blood in feces, number of episodes [3, 8]: more than 10 episodes | neutropenia (grade) [3, 8]: 4 | colitis (grade) ([3]; Ex 7, cabazitaxel 25 mg/m^2 + prednisone, neutropenic colitis, day 9 of first cycle): 3 | absolute neutrophil count ([3]; Ex 7, patient, cabazitaxel 25 mg/m^2 every 3 weeks + prednisone 10 mg, day 9 of first cycle): 0.01 | clostridium difficile infection (grade) ([3]; Ex 8, cabazitaxel 25 mg/m^2 + prednisone/prednisolone): 3 | neutropenia (grade) ([3]; Ex 8, cabazitaxel 25 mg/m^2 + prednisone/prednisolone, 5th day of cycle 1): 3 | outcome ([3]; Ex 8, cabazitaxel 25 mg/m^2 + prednisone/prednisolone, six days later): recovered | neutropenia (grade) ([3]; Ex 8, cabazitaxel 25 mg/m^2 + prednisone/prednisolone, two days later): 4 | diarrhea (grade) ([3]; Ex 8, patient, cabazitaxel 25 mg/m^2 every 3 weeks + prednisone/prednisolone 10 mg daily, 5th day of cycle 1): 2 | outcome ([3]; Ex 9, cabazitaxel 20 mg/m^2 + prednisolone, 5 days after initial hospitalization): death | neutrophil count ([3]; Ex 9, cabazitaxel 20 mg/m^2 + prednisolone, day following admission): 0.4 | neutropenic colitis (grade) ([3]; Ex 9, cabazitaxel 20 mg/m^2 + prednisolone, final diagnosis): 4 | diagnosis at hospitalization ([3]; Ex 9, patient, cabazitaxel 20 mg/m^2 every 3 weeks + prednisolone 10 mg daily, four days after second administration): acute bowel obstruction | neutropenic colitis (grade) ([3]; Ex 10, cabazitaxel 25 mg/m^2 + prednisone): 4 | neutrophil count ([3]; Ex 10, cabazitaxel 25 mg/m^2 + prednisone, one day later, normal 1.4-7.7): 1e+08 L⁻¹ | fever (grade) ([3]; Ex 10, cabazitaxel 25 mg/m^2 + prednisone, readmission two days after discharge): 1 | outcome of event ([3]; Ex 10, cabazitaxel 25 mg/m^2 + prednisone, three days after readmission): resolved | diarrhea (grade) ([3]; Ex 10, patient, cabazitaxel 25 mg/m^2 every 3 weeks + prednisone 10 mg daily, 7 days after first cycle): 2 | diagnosis ([3]; Ex 11, cabazitaxel 20 mg/m^2 + prednisone/prednisolone, nine days after last dose): Neutropenic infection (colitis) | platelet count ([3]; Ex 11, cabazitaxel 20 mg/m^2 + prednisone/prednisolone, nine days after last dose, NR 150×10^3-450×10^3): 93 ×10^3 cells/mm^3 | CRP ([3]; Ex 11, cabazitaxel 20 mg/m^2 + prednisone/prednisolone, nine days after last dose, NR <0.5): 0.39 mg/dL | neutrophils ([3]; Ex 11, cabazitaxel 20 mg/m^2 + prednisone/prednisolone, nine days after last dose, normal 1.7×10^3-8.0×10^3): 1.12 ×10^3 cells/mm^3 | outcome ([3]; Ex 11, cabazitaxel 20 mg/m^2 + prednisone/prednisolone, two days after admission): recovered | WBC ([3]; Ex 11, patient, cabazitaxel 20 mg/m^2 every 3 weeks + prednisone/prednisolone, nine days after last dose, normal 3.5×10^3-10.5×10^3): 2.41 ×10^3 cells/mm^3 | enterocolitis (grade) [3, 9]: 4 | febrile neutropenia (grade) [3, 9]: 4 | renal failure (grade) [3, 9]: 4 | septic shock (grade) [3, 9]: 4 | outcome ([3]; Ex 12, cabazitaxel 25 mg/m^2 + prednisone, 2 days after admission, septic shock secondary to neutropenic enterocolitis): expired | fever ([3]; Ex 12, cabazitaxel 25 mg/m^2 + prednisone, 13 days after first dose): 38.5 °C | lower abdominal pain (grade) ([3]; Ex 12, patient, cabazitaxel 25 mg/m^2 every 3 weeks + prednisone 10 mg daily, 13 days after first dose): 3 | outcome ([3]; Ex 13, cabazitaxel 25 mg/m^2 + prednisone/prednisolone, cause of death reported as progression of disease): died | diagnosis at hospitalization ([3]; Ex 13, patient, cabazitaxel 25 mg/m^2 every 3 weeks + prednisone/prednisolone 10 mg daily, ten days after first cycle): neutropenic enterocolitis and sepsis | outcome ([3]; Ex 14, cabazitaxel 25 mg/m^2 + prednisone, nine days after hospitalization): recovered | adverse event ([3]; Ex 14, patient, cabazitaxel 25 mg/m^2 every 3 weeks + prednisone, 232 days after first, 14 days after most recent dose (cycle 9)): neutropenic enteritis | outcome ([3]; Ex 15, cabazitaxel 25 mg/m^2 + prednisone, 4 days later): recovered | video coloscopy finding ([3]; Ex 15, cabazitaxel 25 mg/m^2 + prednisone, bacteriological tests later negative): probable infectious colitis | rectal bleeding (grade) ([3]; Ex 15, cabazitaxel 25 mg/m^2 + prednisone, cycle 6, 111 days after first, 6 days after last administration): 1 | diarrhea (grade) ([3]; Ex 15, patient, cabazitaxel 25 mg/m^2 every 3 weeks + prednisone 10 mg daily, 108 days after first administration): 1 | SAH (subarachnoid hemorrhage) (grade) [3, 10]: 2 | urinary tract infection (grade) [3, 10]: 3 | gastritis, final diagnosis (grade) ([3]; Ex 16, cabazitaxel 25 mg/m^2 + prednisolone, day 17 of cycle 1): 3 | DIC (grade) [3, 11]: 4 | INR [3, 11]: 1.6 | outcome of gastritis ([3]; Ex 16, cabazitaxel 25 mg/m^2 + prednisolone, three days later): recovered | ulcus ventriculi, initial suspicion (grade) ([3]; Ex 16, patient, cabazitaxel 25 mg/m^2 every 3 weeks + prednisolone 10 mg, day 17 of cycle 1): 3 | outcome ([3]; Ex 17, cabazitaxel 20 mg/m^2 + prednisone, seven days after hospitalization): recovered | adverse event (confirmed by emergency surgery) ([3]; Ex 17, patient, cabazitaxel 20 mg/m^2 every 3 weeks + prednisone 10 mg daily, 42 days after first, 21 days after most recent dose, life-threatening): perforation of ulcer | outcome of duodenal ulcers ([3]; Ex 18, cabazitaxel 25 mg/m^2 + prednisone or prednisolone): recovered | acute cystitis (grade) ([3]; Ex 18, cabazitaxel 25 mg/m^2 + prednisone or prednisolone, day 26 of cycle 1): 1 | duodenal ulcers (grade) ([3]; Ex 18, patient, cabazitaxel 25 mg/m^2 every 3 weeks + prednisone or prednisolone 10 mg daily, four days after day 16 of cycle 1): 1 | haematocrit ([3]; Ex 19, cabazitaxel + prednisone, 128 days after first dose, reference 42-52): 16.33% | digestive haemorrhage (grade) ([3]; Ex 19, cabazitaxel + prednisone, 128 days after first, 20 days after last dose, life threatening): 4 | outcome ([3]; Ex 19, cabazitaxel + prednisone, discharged 9 days after hospitalization): recovered | haemoglobin ([3]; Ex 19, patient, cabazitaxel every 3 weeks + prednisone, 128 days after first, 20 days after last dose, reference 13.0-16.0): 51.2 g/L | haematocrit [3, 12]: 19.5% | haemoglobin [3, 12]: 72 g/L | platelets [3, 12]: 142 ×10^9 | outcome ([3]; Ex 20, cabazitaxel 25 mg/m^2 + prednisolone, fifteen days after hospitalization): recovered | haematocrit [3, 13]: 19% | haemoglobin [3, 13]: 59 g/L | platelet ([3]; Ex 20, cabazitaxel 25 mg/m^2 + prednisolone, thirteen days after hospitalization, units not specified, 180-320 thousand in 1 mcl): 122 | intestinal haemorrhage (grade) ([3]; Ex 20, patient, cabazitaxel 25 mg/m^2 every 3 weeks + prednisolone, 17 days after first dose, life threatening): 4 | adverse event during hospital stay ([3]; Ex 21, cabazitaxel 20 mg/m^2 + prednisone): febrile neutropenia | outcome ([3]; Ex 21, cabazitaxel 20 mg/m^2 + prednisone, one day after discharge): recovered | small bowel obstruction (grade) ([3]; Ex 21, patient, cabazitaxel 20 mg/m^2 every 3 weeks + prednisone 10 mg daily, cycle 2, most likely secondary to adhesions): 4 | outcome ([3]; Ex 22, cabazitaxel 20 mg/m^2 + prednisolone, three days later, after laproscopy): recovered | small intestinal obstruction (grade) ([3]; Ex 22, patient, cabazitaxel 20 mg/m^2 every 3 weeks + prednisolone, cycle 9, 181 days after first, 13 days after most recent dose): 3 | general weakness (grade) ([3]; Ex 23, cabazitaxel 25 mg/m^2 + prednisone): 3 | red blood loss per anum (grade) ([3]; Ex 23, cabazitaxel 25 mg/m^2 + prednisone, 85 days after first, 1 day after most recent dose): 1 | outcome ([3]; Ex 23, cabazitaxel 25 mg/m^2 + prednisone, 117 days after first dose, due to disease progression): died | pathologic fracture lumbar spine 1 (grade) ([3]; Ex 23, cabazitaxel 25 mg/m^2 + prednisone, five days after day 95): 3 | outcome of red blood loss per anum and hematuria ([3]; Ex 23, cabazitaxel 25 mg/m^2 + prednisone, two days after hospitalization): recovered | hematuria (grade) ([3]; Ex 23, patient, cabazitaxel 25 mg/m^2 every 3 weeks + prednisone, 85 days after first, 1 day after most recent dose): 3 | outcome ([3]; Ex 24, cabazitaxel 25 mg/m^2 + prednisone, about a month after hospitalization, unknown cause, colitis ongoing): died | time to resolution of ileus ([3]; Ex 25, cabazitaxel 20 mg/m^2 + prednisone): 13 days | mechanical ileus due to unclear cause (grade) ([3]; Ex 25, cabazitaxel 20 mg/m^2 + prednisone, 215 days after first, 6 days after most recent dose): 2 | diagnosis ([3]; Ex 25, patient, cabazitaxel 20 mg/m^2 every 3 weeks + prednisone 10 mg daily, 214 days after first dose): ileus
